Results as given in patent US20060116390A1, “Hepatitis c virus inhibitors” (priority 2003, published 2006).
Where two headings read alike, the source gives them in different places.

Test system: HCV proteins in Rep5.1 cells (replicon cell line)
Test: Inhibitory activity of HCV: cell-based ELISA in replicon cell line Rep5.1 (decrease of HCV proteins)
Parameters: species or system hepatitis C virus
Conditions: Hepatitis C virus, 72 h, Rep5.1 cells, 72 hours with drug
In short: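 Rep5.1 replicon cells (5000/well, DMEM-10 with 500 μg/ml G418) were given serially diluted drug 4 h after seeding. After 72 h, cells were fixed in methanol/acetone and HCV proteins detected by cell-based ELISA using replicon-specific patient plasma antibodies. IC50 is the concentration giving 50% protein decrease versus the no-drug control.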

[1] = concentration at which 50% of HCV proteins was decreased, Table 2, read-out: IC50
[2] = decrease of HCV proteins measured by HCV antibody, Table 1, read-out: Level (IC50 values classified)

| Compound | IC50 [1] [µM] | IC50 [2] [µM] |
| --- | --- | --- |
| CC1=C(C(=O)OCCc2ccccc2Cl)C(CO)NC(=S)N1 (centres unmarked) [41″, 4-hydroxymethyl-6-methyl-2-thioxo-1,2,3,4-tetrahydro-pyrimidine-5-carboxylic acid 2-(2-chloro-phenyl)-ethyl ester] | 7.2 | 1 to 10 |
| CCn1c2ccccc2c2cc(COC(=O)C3=C(C)NC(=S)NC3)ccc21 [Compound 147, 6-methyl-2-thioxo-1,2,3,4-tetrahydro-pyrimidine-5-carboxylic acid 9-ethyl-9H-carbazol-3-ylmethyl ester] | < 0.4 | < 1 |
| CC1=C(C(=O)OCCc2c(F)c(F)cc(F)c2F)C(CF)NC(=S)N1 (centres unmarked) [65′, 4-fluoromethyl-6-methyl-2-thioxo-1,2,3,4-tetrahydro-pyrimidine-5-carboxylic acid 2-(2,3,5,6-tetrafluoro-phenyl)-ethyl ester] | 1.4 | 1 to 10 |
| CC1=C(C(=O)OCc2cnc(-c3cccs3)s2)CNC(=S)N1 [Compound 210, 6-methyl-2-thioxo-1,2,3,4-tetrahydro-pyrimidine-5-carboxylic acid 2-thiophen-2-yl-thiazol-5-ylmethyl ester] | 3 | 1 to 10 |
| CC1=C(C(=O)OCc2sc3sc(C)nc3c2C)CNC(=S)N1 [Compound 216, 6-methyl-2-thioxo-1,2,3,4-tetrahydro-pyrimidine-5-carboxylic acid 2,6-dimethyl-thieno[3,2-d]thiazol-5-ylmethyl ester] | 5 | 1 to 10 |
| CC1=C(C(=O)OCn2nnc3ccccc32)CNC(=S)N1 [Compound 225, 6-methyl-2-thioxo-1,2,3,4-tetrahydro-pyrimidine-5-carboxylic acid benzotriazol-1-ylmethyl ester] | > 100 | > 20 |
| CC1=C(C(=O)OCCCc2ccco2)CNC(=S)N1 [Compound 250, 6-methyl-2-thioxo-1,2,3,4-tetrahydro-pyrimidine-5-carboxylic acid 3-furan-2-yl-propyl ester] | 0.4 | < 1 |
| CC1=C(C(=O)OCc2ccccc2C)CNC(=S)N1 [Compound 231, 6-methyl-2-thioxo-1,2,3,4-tetrahydro-pyrimidine-5-carboxylic acid 2-methyl-benzyl ester] | 0.7 | < 1 |
| COc1ccc(COC(=O)C2=C(C)NC(=S)NC2CF)cc1Cl (centres unmarked) [82′, 4-fluoromethyl-6-methyl-2-thioxo-1,2,3,4-tetrahydro-pyrimidine-5-carboxylic acid 3-chloro-4-methoxy-benzyl ester] | 2.5 | 1 to 10 |
| CCOC(=O)CCCC1=C(C(=O)OCc2ccccc2)CNC(=S)N1 [Compound 169, 6-(3-ethoxycarbonyl-propyl)-2-thioxo-1,2,3,4-tetrahydro-pyrimidine-5-carboxylic acid benzyl ester] | 9 | 1 to 10 |
| CC1=C(C(=O)OCc2cccc(I)c2)CNC(=S)N1 [Compound 75, 6-methyl-2-thioxo-1,2,3,4-tetrahydro-pyrimidine-5-carboxylic acid 3-iodo-benzyl ester] | < 0.5 | < 1 |
| CC1=C(C(=O)OCc2cccc(SC(F)(F)F)c2)C(CF)NC(=S)N1 (centres unmarked) [72′, 4-fluoromethyl-6-methyl-2-thioxo-1,2,3,4-tetrahydro-pyrimidine-5-carboxylic acid 3-trifluoromethylsulfanyl-benzyl ester] | < 0.4 | < 1 |
| CC1=C(C(=O)OCc2cc(C)cc(C)c2)C(CF)NC(=S)N1 (centres unmarked) [35′, 4-fluoromethyl-6-methyl-2-thioxo-1,2,3,4-tetrahydro-pyrimidine-5-carboxylic acid 3,5-dimethyl-benzyl ester] | 0.8 | < 1 |
| CC1=C(C(=O)OCCCCc2ccsc2)C(CO)NC(=S)N1 (centres unmarked) [25″, 4-hydroxymethyl-6-methyl-2-thioxo-1,2,3,4-tetrahydro-pyrimidine-5-carboxylic acid 4-thiophen-3-yl-butyl ester] | 2 | 1 to 10 |
| CC1=C(C(=O)OCc2ccc3ncsc3c2)CNC(=S)N1 [Compound 248, 6-methyl-2-thioxo-1,2,3,4-tetrahydro-pyrimidine-5-carboxylic acid benzothiazol-6-ylmethyl ester] | 5 | 1 to 10 |
| CC1=C(C(=O)OCCOCCc2ccsc2)CNC(=S)N1 [54′, 6-methyl-2-thioxo-1,2,3,4-tetrahydro-pyrimidine-5-carboxylic acid 2-(2-thiophen-3-yl-ethoxy)-ethyl ester] | 5 | 1 to 10 |
| CC1=C(C(=O)OCc2ccc(F)cc2)CNC(=S)N1 [Compound 61, 6-methyl-2-thioxo-1,2,3,4-tetrahydro-pyrimidine-5-carboxylic acid 4-fluoro-benzyl ester] | 0.8 | < 1 |
| CC1=C(C(=O)OCCc2ccc(C)c(F)c2)C(CO)NC(=S)N1 (centres unmarked) [55″, 4-hydroxymethyl-6-methyl-2-thioxo-1,2,3,4-tetrahydro-pyrimidine-5-carboxylic acid 2-(3-fluoro-4-methyl-phenyl)-ethyl ester] | 0.5 | < 1 |
| CC1=C(C(=O)OCCc2ccc(F)cc2)C(CF)NC(=S)N1 (centres unmarked) [32′, 4-fluoromethyl-6-methyl-2-thioxo-1,2,3,4-tetrahydro-pyrimidine-5-carboxylic acid 2-(4-fluoro-phenyl)-ethyl ester] | 0.9 | < 1 |
| C=CCN(C)c1ccc(CCOC(=O)C2=C(C)NC(=S)NC2CO)cc1[N+](=O)[O-] (centres unmarked) [96″, 4-Hydroxymethyl-6-methyl-2-thioxo-1,2,3,4-tetrahydro-pyrimidine-5-carboxylic acid 2-[4-(allyl-methyl-amino)-3-nitro-phenyl]-ethyl ester] | 0.9 | < 1 |
| CC(=O)SCCOC(=O)OCC1NC(=S)NC(C)=C1C(=O)OCCc1cccc([N+](=O)[O-])c1 (centres unmarked) [79″, 4-(2-acetylsulfanyl-ethoxycarbonyloxymethyl)-6-methyl-2-thioxo-1,2,3,4-tetrahydro-pyrimidine-5-carboxylic acid 2-(3-nitro-phenyl)-ethyl ester] | 6.2 | 1 to 10 |
| CC1=C(C(=O)OCc2ccccc2S(=O)(=O)CC(C)C)CNC(=S)N1 [Compound 113, 6-methyl-2-thioxo-1,2,3,4-tetrahydro-pyrimidine-5-carboxylic acid 2-(2-methyl-propane-1-sulfonyl)-benzyl ester] | > 100 | > 20 |
| CC1=C(C(=O)OCCOc2ccccc2)CNC(=S)N1 [Compound 163, 6-methyl-2-thioxo-1,2,3,4-tetrahydro-pyrimidine-5-carboxylic acid 2-phenoxy-ethyl ester] | 2.5 | 1 to 10 |
| CC1=C(C(=O)OCCc2ccsc2Br)C(CF)NC(=S)N1 (centres unmarked) [Compound 268, 4-fluoromethyl-6-methyl-2-thioxo-1,2,3,4-tetrahydro-pyrimidine-5-carboxylic acid 2-(2-bromo-thiophen-3-yl)-ethyl ester] | 1 | 1 to 10 |
| CC1=C(C(=O)OCC2CCOC2)CNC(=S)N1 (centres unmarked) [Compound 162, 6-methyl-2-thioxo-1,2,3,4-tetrahydro-pyrimidine-5-carboxylic acid tetrahydrofuran-3-ylmethyl ester] | > 100 | > 20 |
